In US20230399311A1, “POLYMORPHS OF SUBSTITUTED ISOQUINOLINE-BASED RHO KINASE INHIBITORS” (BioAxone BioSciences, Inc., priority 2022, published 2023):
≈ marks a conversion by molar mass, not a printed value. Where “and” joins values, the source holds several entries; their conditions need not be identical. Identical values can stand only once. Like-named read-outs stand apart in the source and are kept apart here.

Legend:
[1] = Solubility of Form A in various solvents at 25° C. and 50° C.; assay type: physicochemical; settings: thermodynamic from solid
Method: The solubility of Form A of Compound 1 was evaluated at 25° C. and 50° C. in various solvents.

[2] = pKa by iterative titration with 1M sodium hydroxide; assay type: physicochemical; settings: free base form; for pKa: Measurements #1-#3
Method: The pKa of NRL-1049 in free base form was measured in triplicate by iterative titration with 1M sodium hydroxide solution. A plot of the pH versus the volume of the titrant was used to calculate the pKa, wherein the pKa was taken as 50% of the inflection point.

C[C@@H](N)C1CCN(S(=O)(=O)c2cccc3cnccc23)CC1 [NRL-1049 (R), (R)-1-(1-(isoquinolin-5-ylsulfonyl)piperidin-4-yl)ethan-1-amine]
solubility ([1]; 1,4-dioxane, 25 °C, organic solvent or mixture, read-out: Solubility at 25° C.): 1500 µg/mL (≈ 4.7 mM) | solubility ([1]; 1,4-dioxane, 50 °C, organic solvent or mixture, read-out: Solubility at 50° C.): 11900 µg/mL (≈ 37.3 mM) | solubility ([1]; 2-methoxyethanol, 25 °C, organic solvent or mixture, read-out: Solubility at 25° C.): > 50000 µg/mL | solubility ([1]; 2-methoxyethanol, 50 °C, organic solvent or mixture, read-out: Solubility at 50° C.): > 50000 µg/mL | solubility ([1]; acetone, 25 °C, organic solvent or mixture, read-out: Solubility at 25° C.): 15900 µg/mL (≈ 49.8 mM) | solubility ([1]; acetone, 50 °C, organic solvent or mixture, read-out: Solubility at 50° C.): 45300 µg/mL (≈ 142 mM) | solubility ([1]; acetonitrile, 25 °C, organic solvent or mixture, read-out: Solubility at 25° C.): < 1000 µg/mL | solubility ([1]; acetonitrile, 50 °C, organic solvent or mixture, read-out: Solubility at 50° C.): < 1000 µg/mL | solubility ([1]; benzyl alcohol, 25 °C, organic solvent or mixture, read-out: Solubility at 25° C.): 156000 µg/mL (≈ 488 mM) | solubility ([1]; chloroform, 25 °C, organic solvent or mixture, read-out: Solubility at 25° C.): > 50000 µg/mL | solubility ([1]; chloroform, 50 °C, organic solvent or mixture, read-out: Solubility at 50° C.): > 50000 µg/mL | solubility ([1]; dichloromethane, 25 °C, organic solvent or mixture, read-out: Solubility at 25° C.): < 1000 µg/mL | solubility ([1]; dichloromethane, 50 °C, organic solvent or mixture, read-out: Solubility at 50° C.): < 1000 µg/mL | solubility ([1]; dimethyl sulfoxide, 25 °C, organic solvent or mixture, read-out: Solubility at 25° C.): > 50000 µg/mL | solubility ([1]; dimethyl sulfoxide, 50 °C, organic solvent or mixture, read-out: Solubility at 50° C.): > 50000 µg/mL | solubility ([1]; dimethylformamide, 25 °C, organic solvent or mixture, read-out: Solubility at 25° C.): 39300 µg/mL (≈ 123 mM) | solubility ([1]; dimethylformamide, 50 °C, organic solvent or mixture, read-out: Solubility at 50° C.): > 50000 µg/mL | solubility ([1]; ethanol, 25 °C, organic solvent or mixture, read-out: Solubility at 25° C.): 12300 µg/mL (≈ 38.5 mM) | solubility ([1]; ethanol, 50 °C, organic solvent or mixture, read-out: Solubility at 50° C.): 25300 µg/mL (≈ 79.2 mM) | solubility ([1]; ethyl acetate, 25 °C, organic solvent or mixture, read-out: Solubility at 25° C.): < 1000 µg/mL | solubility ([1]; ethyl acetate, 50 °C, organic solvent or mixture, read-out: Solubility at 50° C.): < 1000 µg/mL | solubility ([1]; ethyl formate, 25 °C, organic solvent or mixture, read-out: Solubility at 25° C.): 13700 µg/mL (≈ 42.9 mM) | solubility ([1]; ethyl formate, 50 °C, organic solvent or mixture, read-out: Solubility at 50° C.): > 50000 µg/mL | solubility ([1]; iso-butyl acetate, 25 °C, organic solvent or mixture, read-out: Solubility at 25° C.): < 1000 µg/mL | solubility ([1]; iso-butyl acetate, 50 °C, organic solvent or mixture, read-out: Solubility at 50° C.): < 1000 µg/mL | solubility ([1]; iso-propanol, 25 °C, organic solvent or mixture, read-out: Solubility at 25° C.): 500 µg/mL (≈ 1.57 mM) | solubility ([1]; iso-propanol, 50 °C, organic solvent or mixture, read-out: Solubility at 50° C.): 14700 µg/mL (≈ 46 mM) | solubility ([1]; iso-propyl acetate, 25 °C, organic solvent or mixture, read-out: Solubility at 25° C.): < 1000 µg/mL | solubility ([1]; iso-propyl acetate, 50 °C, organic solvent or mixture, read-out: Solubility at 50° C.): < 1000 µg/mL | solubility ([1]; medium chain triglyceride, 25 °C, oil or lipid, read-out: Solubility at 25° C.): 100 µg/mL (≈ 0.313 mM) | solubility ([1]; methanol, 25 °C, organic solvent or mixture, read-out: Solubility at 25° C.): > 50000 µg/mL | solubility ([1]; methanol, 50 °C, organic solvent or mixture, read-out: Solubility at 50° C.): > 50000 µg/mL | solubility ([1]; methyl ethyl ketone, 25 °C, organic solvent or mixture, read-out: Solubility at 25° C.): < 1000 µg/mL | solubility ([1]; methyl ethyl ketone, 50 °C, organic solvent or mixture, read-out: Solubility at 50° C.): 1500 µg/mL (≈ 4.7 mM) | solubility ([1]; methyl iso-butyl ketone, 25 °C, organic solvent or mixture, read-out: Solubility at 25° C.): < 1000 µg/mL | solubility ([1]; methyl iso-butyl ketone, 50 °C, organic solvent or mixture, read-out: Solubility at 50° C.): < 1000 µg/mL | solubility ([1]; n-butyl alcohol, 25 °C, organic solvent or mixture, read-out: Solubility at 25° C.): 1600 µg/mL (≈ 5.01 mM) | solubility ([1]; n-butyl alcohol, 50 °C, organic solvent or mixture, read-out: Solubility at 50° C.): 7500 µg/mL (≈ 23.5 mM) | solubility ([1]; n-propanol, 25 °C, organic solvent or mixture, read-out: Solubility at 25° C.): 1600 µg/mL (≈ 5.01 mM) | solubility ([1]; n-propanol, 50 °C, organic solvent or mixture, read-out: Solubility at 50° C.): 23400 µg/mL (≈ 73.3 mM) | solubility ([1]; o-xylene, 25 °C, organic solvent or mixture, read-out: Solubility at 25° C.): < 1000 µg/mL | solubility ([1]; o-xylene, 50 °C, organic solvent or mixture, read-out: Solubility at 50° C.): < 1000 µg/mL | solubility ([1]; polyethylene glycol 300, 25 °C, organic solvent or mixture, read-out: Solubility at 25° C.): 11000 µg/mL (≈ 34.4 mM) | solubility ([1]; propylene glycol, 25 °C, organic solvent or mixture, read-out: Solubility at 25° C.): 84000 µg/mL (≈ 263 mM) | solubility ([1]; sesame oil, 25 °C, oil or lipid, read-out: Solubility at 25° C.): 40 µg/mL (≈ 0.125 mM) | solubility ([1]; tert-butyl methyl ether, 25 °C, organic solvent or mixture, read-out: Solubility at 25° C.): < 1000 µg/mL | solubility ([1]; tert-butyl methyl ether, 50 °C, organic solvent or mixture, read-out: Solubility at 50° C.): < 1000 µg/mL | solubility ([1]; tetrahydrofuran, 25 °C, organic solvent or mixture, read-out: Solubility at 25° C.): 1600 µg/mL (≈ 5.01 mM) | solubility ([1]; tetrahydrofuran, 50 °C, organic solvent or mixture, read-out: Solubility at 50° C.): 2000 µg/mL (≈ 6.26 mM) | solubility ([1]; toluene, 25 °C, organic solvent or mixture, read-out: Solubility at 25° C.): < 1000 µg/mL | solubility ([1]; toluene, 50 °C, organic solvent or mixture, read-out: Solubility at 50° C.): < 1000 µg/mL | solubility ([1]; water, 25 °C, water, read-out: Solubility at 25° C.): > 50000 µg/mL | solubility ([1]; water, 50 °C, water, read-out: Solubility at 50° C.): > 50000 µg/mL

CC(N)C1CCN(S(=O)(=O)c2cccc3cnccc23)CC1 (stereo not shown) [NRL-1049]
pKa average ([2]; Sample 1): 1.8 | pKa ([2]; Sample 1): 1.73 and 1.81 and 1.83 | pKa average ([2]; Sample 2): 2.0 | pKa average ([2]; Sample 3): 1.9 | pKa ([2]; Sample 3): 1.89 and 1.87 and 1.98
